{"source": "patent US20240002379A1", "about": "“ASYMMETRIC CONJUGATE COMPOUNDS” (Pheon Therapeutics Ltd., priority 2016, published 2024)", "test_system": "linear double-stranded 32P-end-labelled TyrT DNA fragment", "assay": "DNA interstrand cross-linking assay, denaturing polyacrylamide gel", "format": "biochemical", "conditions": "overnight incubation at 37° C., 10 concentrations tested, assay repeated twice", "description": "The ability of 13 to cross-link DNA was determined using an assay involving a linear double-stranded TyrT fragment (FIG. 8).\nFollowing denaturation conditions (treatment with formamide and heating at 65° C. for 5 min) the DNA strands were completely separated (see controls C2 and C4, FIG. 9). The presence of an interstrand cross-link holds the denatured strands in close proximity, and cross-linked adducts therefore run as double-stranded DNA on polyacrylamide gel.\nThe preparation of the TyrT DNA fragment (FIG. 8) and HexARev DNA fragment (FIG. 15) have been previously described (34). Briefly, the sequence which had been cloned into the BamHI site of pUC18 was obtained by cutting with HindIII and EcoRI. Radiolabelled DNA fragments were prepared by filling in the 3′-end of the HindIII site with [α-^32P]dATP using Klenow DNA polymerase (exo-).\nThe radiolabelled DNA fragment was separated from the remainder of the plasmid DNA on a 6% non-denaturing polyacrylamide gel. The gel (20 cm long, 0.3 mm thick) was run at 400 V in 1×TBE running buffer for about 1-2 h, until the bromophenol blue had run most of the way down the gel. The glass plates were separated and the position of the labelled DNA fragment was established by short (1 min) exposure to an X-ray film. […]", "data": [{"compound": "COc1cc2c(cc1OCCCC(=O)N1C[C@@H](CCl)c3c1cc(O)c1ccccc31)N=C[C@@H]1CCCCN1C2=O", "note": "[Compound 13, (S)-3-(4-((S)-1-(Chloromethyl)-5-hydroxy-1,2-dihydro-3H-benzo[e]indol-3-yl)-4-oxobutoxy)-2-methoxy-7,8,9,10-tetrahydrobenzo[e]-pyrido[1,2-a][1,4]diazepin-12(6aH)-one]", "values": [{"measurement": "lowest concentration at which DNA cross-links are visible", "result": 10, "unit": "nM"}]}]}
